Laboratory results published in patent US20250137032A1, “TWO-COMPONENT SYSTEMS FOR USE IN CELL-FREE GENE EXPRESSION” (priority 2023, published 2025).
“Also recorded” adds a separate entry of the source.

Columns and labels:
NarX [1] = target: T1, NarX (Escherichia coli, UniProt P0AFA2, T450I/V366A); assay: Cell-free NarX-L system encapsulated in giant unilamellar vesicles; assay type: biochemical, E. coli; conditions: 1 mM nitrate, GUVs of POPC:cholesterol with rhodamine lipid, 30° C. 16 hours, with RNase
T1 construct: All genes were; made in house; host or cells: cell-free expression in situ, myTXTL E. coli extract (Arbor Biosciences), with synthetic lipid vesicles
T1 sequence (P0AFA2 other isoform, or with tags, fused parts or gaps V366A/T450I): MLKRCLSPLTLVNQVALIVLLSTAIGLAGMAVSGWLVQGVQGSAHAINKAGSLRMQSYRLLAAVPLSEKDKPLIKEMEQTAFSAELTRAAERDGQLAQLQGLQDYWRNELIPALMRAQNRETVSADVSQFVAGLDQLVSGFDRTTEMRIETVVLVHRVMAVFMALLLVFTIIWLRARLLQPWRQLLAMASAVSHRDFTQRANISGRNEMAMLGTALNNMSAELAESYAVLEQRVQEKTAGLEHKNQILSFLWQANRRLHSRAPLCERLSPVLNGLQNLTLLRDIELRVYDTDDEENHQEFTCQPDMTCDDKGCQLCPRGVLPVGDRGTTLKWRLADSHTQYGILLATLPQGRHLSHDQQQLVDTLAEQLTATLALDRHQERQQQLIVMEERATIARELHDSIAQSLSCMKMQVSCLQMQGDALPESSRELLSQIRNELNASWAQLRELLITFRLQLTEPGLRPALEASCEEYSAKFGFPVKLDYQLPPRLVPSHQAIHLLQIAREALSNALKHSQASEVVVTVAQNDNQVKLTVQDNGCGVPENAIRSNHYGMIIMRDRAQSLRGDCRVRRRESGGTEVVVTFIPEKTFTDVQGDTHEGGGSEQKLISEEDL
Excerpt: Over the last decade, many promising cell-free systems have been developed, enabling the delivery and sensing of a wide array of ligands in non-ideal environments. Cell-free systems have been encapsulated and administered to mice (47), lyophilized and used in resource limited settings (6, 7), and integrated into wearable materials to sense environmental contaminants (8). Towards the goal of creating cell-mimetic particles which can sense environmental stimuli in complex environments, such as the body, we encapsulated our cell-free system into giant unilamellar vesicles using the emulsion transfer method (FIG. 5A). We encapsulated cell-free extract containing plasmids encoding NarX, NarL, and the downstream protein (luciferase or mEGFP) into membranes composed of 1 POPC: 1 cholesterol and a rhodamine conjugated lipid. We hypothesized that by encapsulating cell-free reaction components into vesicles, NarX could insert into membranes and initiate signaling in response to exogenously added nitrate. […]
For samples containing the luciferase plasmid, 0.5 μL of NanoGlo Luciferase substrate was added to the reaction, and reactions were read on a Molecular Devices Spectra Max i3 plate reader. […] Images were analyzed using the Nikon NIS software.

[2] = test system: cell-free protein synthesis; assay: Cell-free protein synthesis (myTXTL): NarX western blot band intensity and luminescence; assay type: biochemical, E. coli; conditions: increasing ligand concentration; NarX band intensity / luminescence (FIG. 7, FIG. 14)
Description: (§1) Protein expression was performed using the myTxTl system (Arbor Biosceinces). 5 μL reactions were assembled with 10 mM lipid, 0.1 nM plasmid encoding T7 RNA polymerase, 9.9 nM plasmids encoding NarX, NarL, and reporter gene (nano luciferase or GFP) in specified ratios, and various concentration of ligands. Cell-free reactions were allowed to progress at 30° C. for 16 hours. Luciferase luminescence was read using the NanoGlo luciferase system and GFP fluorescence (ex. 480 nm, em. 507 nm) was read using a Molecular Devices Spectra Max i3 plate reader. To calculate fold change, luminescence values in the presence of nitrate were divided by the luminescence values in the absence of nitrate for each replicate.
1 μL of cell-free reaction was diluted to 15 μL in Laemlli buffer and heated at 95° C. for 10 minutes. Samples were then loaded and run on a 12% Mini-PROTEAN TGX Precast Protein Gel (Bio-Rad) at 150 V for 90 minutes. Wet transfer was performed onto a PVDF membrane (Bio-Rad) for 45 min at 100 V. Membranes were then blocked for an hour at room temperature in 5% milk in TBST (pH 7.6:50 mM Tris, 150 mM NaCl, HCl to pH 7.6, 0.1% Tween) and incubated for 1 hour at room temperature or overnight at 4° C. with primary solution (anti-Flag (Sigma F1804) or anti-Myc (ab32), diluted 1:1000 in 5% milk in TBST). Primary antibody solution was decanted, and the membrane was washed three times for 5 minutes in TBST and then incubated in secondary solution at room temperature for 1 hour (HRP-anti-Mouse (CST 7076) diluted 1:3000 in 5% milk in TBST). Membranes were then washed in TBST and incubated with Clarity Western ECL Substrate (Bio-Rad) for 5 min. Blots were imaged using an Azure Biosystems c280 imager and band intensities were quantified with ImageJ.

[3] = Dynamic light scattering of 100% POPC vesicles in the presence of ligands (liposome stability); assay type: physicochemical; conditions: 100% POPC vesicles in the presence of 1 mM ligand
NarX [4] = target: T1, NarX; assay: Lyophilized NarX-L reactions rehydrated in non-ideal media; assay type: biochemical, E. coli; conditions: 100 μM nitrate; rehydrated with Milli-Q water, lake water or FBS; 30° C.
Description: As a control, we flash froze reactions and allowed them to proceed without lyophilization. […] To remediate this, we lyophilized vesicles and reactions separately. When rehydrating reactions, we rehydrated vesicles with water and then mixed the rehydrated vesicles, lyophilized cell-free components, and rehydration media (water, lake water, or FBS) with or without 100 μM nitrate. We then allowed reactions to proceed at 30° C. […] To deploy biosensors out of the lab, one must understand how quickly they are able to sense a ligand. […] We furthermore envision that these systems could be leveraged to engineer targeted drug delivery systems or for point-of-use biosensing.
Cell-free reactions were prepared as above, omitting vesicles and ligand. Reactions and vesicles were then flash frozen and lyophilized overnight. Following lyophilization, vesicles were rehydrated in water and cell free reactions were rehydrated in various media, such as Mili-Q water, Lake Water from Lake Michigan, and 50% FBS containing either 100 μM nitrate or an equivalent volume of water. Vesicles and reactions were allowed to rehydrate for 30 minutes on ice. Finally, vesicles were added to each reaction to bring the total volume to 5 μL and reactions were allowed to proceed at 30° C. for 16 hours.

NarX [5] = target: T1, NarX; assay: Cell-free NarX-L nitrate sensing, nanoluciferase reporter luminescence; assay type: biochemical, E. coli
Excerpt: As a first step towards understanding how TCSs can be integrated into cell-free systems, we tested the functional expression of NarX and NarL. The analyte for this sensor, nitrate, is a known ground water contaminate (30), serves as a convenient input, and previous work has characterized and engineered NarL mutants and its cognate promoter (26), ensuring that downstream gene transcription is a result of cell-free expressed NarL. We assembled cell-free reactions containing the myTXTL system (31), three DNA templates, liposomes, and assessed the reactions in response to nitrate addition. Two templates contained genes for either NarX or a NarL mutant (26) under the control of T7 RNA polymerase. The third template served as a genetic reporter for TCS signaling and contained a reporter gene (nanoluciferase) under the control of a promoter to which NarL binds (32). Finally, we included 100 nm lipid vesicles composed of 1,2-dimyristoyl-sn-glycero-3-phosphocholine (DMPC) into which NarX could integrate (FIG. 1A). Upon addition of nitrate, NarX should phosphorylate NarL, which should then bind the reporter plasmid and induce downstream luciferase expression (FIG. 1A).
as §1

O=[N+]([O-])[O-].[Na+] [Nitrate, sodium nitrate]
sensing of exogenously added nitrate by encapsulated sensor (microscopy and bulk plate reader) (NarX [1]): able to sense exogenous nitrate | effect on cell-free protein expression [2]: inhibit protein synthesis; also recorded: inhibits protein expression | Diameter (nm) [3]: 123.26 nm | P.D.I. [3]: 0.278 | sensing of nitrate after lyophilization and rehydration (NarX [4]): could sense 100 μM nitrate in all conditions | increase in luminescence in nitrate titration (NarX [5]; absence of vesicles (FIG. 1C)): 2 fold | increase in luminescence compared to reactions run in the absence of nitrate (NarX [5]; all components present, DMPC vesicles (FIG. 1B)): ~3 fold | time to differentiate a positive from a negative signal (luminescence over time) (NarX [5]; nitrate sample vs water sample, p<0.03, n=2 (FIG. 18)): 6.5 h | nitrate concentration at which the cell-free system lost sensitivity (NarX [5]; nitrate titration): 10 mM | detection of nitrate at levels as low as (NarX [5]; nitrate titration, cell-free system): 10 µM | specificity of activation by ligand (NarX [5]; wild-type NarX, nitrate vs nickel (FIG. 4F)): specifically turn ‘on’
